Key:
ALK = target: T1, ALK (Homo sapiens, UniProt Q9UM73); assay: Kinase inhibitory activity (33P-ATP, filtration-binding method, Reaction Biology Corp.); type: biochemical
T1 construct: purchased Reaction Biology Corp
Method: The mixture was incubated at room temperature for 20 minutes, added with ^33P-ATP at a certain concentration to start the reaction, and then incubated at room temperature for 120 minutes. Finally, the radioactivity of the reactant was detected by the filtration-binding method. The final kinase activity was expressed as the ratio of the remaining kinase activity in the test sample to the kinase activity of the DMSO control. The dose-response curves were fitted and IC50 values were calculated by GraphPad software.

BaF3 ETV6-NTRK3-G623R = target: T2, BaF3 ETV6-NTRK3-G623R (Homo sapiens, UniProt Q16288, G623R, cells depend on it); assay: Inhibitory activity against cell proliferation (CellTiter-Glo, 72 hours); type: cell-based; settings: read-out: Half maximal inhibitory concentration IC50 of cells, BaF3 ETV6-NTRK3-G623R
T2 construct: fused on or other part: N-terminal part of ETV6 (TEL) as fusion partner (part of the key); P41212 (Transcription factor ETV6)
Method: Adenosine Triphosphate (ATP) is an energy carrier commonly used in various life activities in nature, and is the minimum unit for energy storage and transfer. The CellTiter-Glo™ cell viability assay kit uses luciferase as an assay agent, which requires the involvement of ATP in luminescence. The CellTiter-Glo™ reagent is added into cell culture medium to measure the luminescence value. The luminescence signal is directly proportional to the amount of ATP in the system, and the ATP is positively correlated with the number of viable cells. Therefore, the proliferation of cells can be detected by detecting the ATP content using the CellTiter-Glo kit. In this test, the cell lines used are Ba/F3 LMNA-NTRK1-WT, Ba/F3 LMNA-NTRK1-F589L, BaF3 LMNA-NTRK1-G595R, BaF3 LMNA-NTRK1-G667A, BaF3 ETV6-NTRK3-WT, BaF3 ETV6-NTRK3-G623R, and Ba/F3 SLC34A2-ROS1-WT stable cell strains, 5000 cells/well.
a) Cells in the logarithmic growth phase were collected and counted using a […]. The cell viability was detected by the trypan blue exclusion method, and the cell viability was kept over 90%.
b) The cell concentration was adjusted; 90 μL of the cell suspension was added to a 96-well plate.
c) Cells in the 96-well plate were incubated overnight at 37° C. with 5% CO2 and 95% humidity.
a) A 10-fold compound solution was prepared, with the highest concentration being 10 μM (a total of 9 concentrations, 3-fold dilution). 10 μL of compound solution was added to each well of a 96-well plate inoculated with cells, and three duplicate wells were set for each compound concentration.
b) The cells in the 96-well plate added with compound were incubated for 72 hours at 37° C. with 5% CO2 and 95% humidity, followed by the CTG (CellTiter-Glo) analysis.
a) The CTG reagent was thawed and the cell plate was equilibrated to room temperature for 30 minutes.
b) An equal volume of CTG solution was added to each well.
c) The plate was shaken on an orbital shaker for 5 minutes to lyse the cells.
d) The cell plate was placed at room temperature for 20 minutes to stabilize the luminescence signal.
e) The luminescence value was read.
The data were analyzed using GraphPad Prism 5.0 software, fitted with nonlinear S-curve regression to give dose-response curves, and IC50 values were calculated therefrom.

Ba/F3 ETV6-NTRK3 cells = assay: Efficacy test in animals: subcutaneous xenograft, intragastric administration; type: in vivo, nude mice; settings: for TGI (tumor growth inhibition rate): day of dissection; for Tumor inhibition rate (by tumor weight) / Tumor weight: end of the test
Method: (§1) Cells in the logarithmic growth phase were collected and resuspended in serum-free medium to a cell concentration of 2-4×10^7 cells/mL. An equal volume of matrigel was added to the cell suspension to achieve a final cell concentration of 1-2×10^7 cells/mL. 0.2 mL of tumor cell suspension was subcutaneously inoculated at the scapula of each nude mouse with the inoculation amount of 2-4×10^6 cells/mouse to prepare the animal models.

[1] = system: Ba/F3 ETV6-NTRK3-G623R cells; assay: as above; type: in vivo, nude mice
Method: as §1

T1 sequence (Q9UM73 19-1620): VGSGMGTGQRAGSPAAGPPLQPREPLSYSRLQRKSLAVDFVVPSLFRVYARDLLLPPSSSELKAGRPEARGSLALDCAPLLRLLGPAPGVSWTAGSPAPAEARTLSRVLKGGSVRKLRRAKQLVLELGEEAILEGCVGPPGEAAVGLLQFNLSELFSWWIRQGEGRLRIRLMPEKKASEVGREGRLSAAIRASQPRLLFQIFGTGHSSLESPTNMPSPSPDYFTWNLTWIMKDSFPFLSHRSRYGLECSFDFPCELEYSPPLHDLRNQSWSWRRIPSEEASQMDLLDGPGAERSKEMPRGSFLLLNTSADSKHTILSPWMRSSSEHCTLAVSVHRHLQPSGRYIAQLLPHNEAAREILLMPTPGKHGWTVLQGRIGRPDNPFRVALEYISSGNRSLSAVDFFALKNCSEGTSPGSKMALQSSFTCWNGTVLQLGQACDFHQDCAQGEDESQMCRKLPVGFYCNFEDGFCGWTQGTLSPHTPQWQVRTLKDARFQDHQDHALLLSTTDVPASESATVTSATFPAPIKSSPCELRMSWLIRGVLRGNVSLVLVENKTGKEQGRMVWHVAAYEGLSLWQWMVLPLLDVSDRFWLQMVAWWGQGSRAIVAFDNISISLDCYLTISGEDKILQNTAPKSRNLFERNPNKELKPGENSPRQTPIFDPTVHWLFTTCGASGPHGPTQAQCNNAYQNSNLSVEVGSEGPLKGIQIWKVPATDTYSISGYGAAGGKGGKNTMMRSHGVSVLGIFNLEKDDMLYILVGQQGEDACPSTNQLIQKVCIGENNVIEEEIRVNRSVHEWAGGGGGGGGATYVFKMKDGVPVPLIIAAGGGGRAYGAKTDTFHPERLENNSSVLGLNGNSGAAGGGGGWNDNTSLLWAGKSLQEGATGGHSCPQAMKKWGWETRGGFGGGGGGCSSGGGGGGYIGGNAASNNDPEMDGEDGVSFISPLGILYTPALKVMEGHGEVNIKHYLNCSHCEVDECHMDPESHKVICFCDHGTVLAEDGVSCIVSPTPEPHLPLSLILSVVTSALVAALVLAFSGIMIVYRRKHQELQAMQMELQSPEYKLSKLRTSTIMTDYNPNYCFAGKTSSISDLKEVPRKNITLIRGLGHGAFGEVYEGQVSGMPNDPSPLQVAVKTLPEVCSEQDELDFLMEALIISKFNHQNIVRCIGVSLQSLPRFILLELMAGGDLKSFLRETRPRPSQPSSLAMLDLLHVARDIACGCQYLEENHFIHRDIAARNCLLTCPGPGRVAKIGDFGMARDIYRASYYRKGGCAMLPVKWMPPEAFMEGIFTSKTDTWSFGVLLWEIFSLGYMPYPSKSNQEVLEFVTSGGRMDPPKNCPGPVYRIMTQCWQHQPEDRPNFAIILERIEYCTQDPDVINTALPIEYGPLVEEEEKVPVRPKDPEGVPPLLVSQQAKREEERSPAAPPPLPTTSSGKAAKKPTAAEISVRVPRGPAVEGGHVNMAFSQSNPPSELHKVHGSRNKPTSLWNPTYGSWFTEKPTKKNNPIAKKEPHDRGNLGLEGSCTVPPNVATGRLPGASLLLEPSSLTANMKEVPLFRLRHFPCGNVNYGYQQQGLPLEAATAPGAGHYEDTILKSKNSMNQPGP
T2 sequence (Q16288 whole entry G623R, the tested form may be a part): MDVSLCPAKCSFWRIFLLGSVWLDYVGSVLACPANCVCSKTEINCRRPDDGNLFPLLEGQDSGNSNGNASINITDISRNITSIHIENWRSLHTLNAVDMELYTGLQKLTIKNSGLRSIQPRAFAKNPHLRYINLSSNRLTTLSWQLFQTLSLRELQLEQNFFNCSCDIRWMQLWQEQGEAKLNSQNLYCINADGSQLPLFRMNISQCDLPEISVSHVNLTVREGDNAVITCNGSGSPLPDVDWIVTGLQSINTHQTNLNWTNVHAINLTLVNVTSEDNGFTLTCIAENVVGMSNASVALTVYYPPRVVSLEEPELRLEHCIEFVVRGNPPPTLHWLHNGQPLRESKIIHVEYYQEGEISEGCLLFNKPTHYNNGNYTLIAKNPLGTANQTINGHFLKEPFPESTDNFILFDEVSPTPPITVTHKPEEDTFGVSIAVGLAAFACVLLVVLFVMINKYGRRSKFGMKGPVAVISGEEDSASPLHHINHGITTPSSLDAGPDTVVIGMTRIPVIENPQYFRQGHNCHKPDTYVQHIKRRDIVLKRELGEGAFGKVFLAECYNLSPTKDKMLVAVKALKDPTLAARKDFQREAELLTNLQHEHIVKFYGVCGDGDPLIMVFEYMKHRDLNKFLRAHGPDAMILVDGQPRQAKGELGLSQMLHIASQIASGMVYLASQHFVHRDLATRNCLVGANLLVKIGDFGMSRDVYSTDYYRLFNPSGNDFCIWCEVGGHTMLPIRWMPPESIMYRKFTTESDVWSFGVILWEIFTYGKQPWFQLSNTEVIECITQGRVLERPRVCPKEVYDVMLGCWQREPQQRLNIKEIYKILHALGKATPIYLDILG

Compound: O=C1NC2(CC2)COc2ncc(F)cc2C2COCCN2c2ccn3ncc1c3n2 (single isomer, unassigned) [WX001B]
- IC50 (ALK): 182 nM
- GI50 (BaF3 ETV6-NTRK3-G623R): 2.3 nM
- Inhibition of growth of subcutaneous xenografts (Ba/F3 ETV6-NTRK3 cells; 2.5-20 mg/kg): in a dose-dependent manner
- Relative tumor proliferation rate T/C (Ba/F3 ETV6-NTRK3 cells; Day 0, 2.5 mg/kg bid): 100.00%
- Tumor volume (Ba/F3 ETV6-NTRK3 cells; Day 0, 2.5 mg/kg bid): 303.54 ± 48.83 mm^3
- Relative tumor proliferation rate T/C (Ba/F3 ETV6-NTRK3 cells; Day 0, 5 mg/kg bid): 100.00%
- Tumor volume (Ba/F3 ETV6-NTRK3 cells; Day 0, 5 mg/kg bid): 303.26 ± 50.47 mm^3
- Relative tumor proliferation rate T/C (Ba/F3 ETV6-NTRK3 cells; Day 0, 10 mg/kg bid): 100.00%
- Tumor volume (Ba/F3 ETV6-NTRK3 cells; Day 0, 10 mg/kg bid): 303.14 ± 45.09 mm^3
- Relative tumor proliferation rate T/C (Ba/F3 ETV6-NTRK3 cells; Day 0, 20 mg/kg bid): 100.00%
- Tumor volume (Ba/F3 ETV6-NTRK3 cells; Day 0, 20 mg/kg bid): 303.47 ± 45.79 mm^3
- Relative tumor proliferation rate T/C (Ba/F3 ETV6-NTRK3 cells; Day 3, 2.5 mg/kg bid): 42.59%
- Tumor volume (Ba/F3 ETV6-NTRK3 cells; Day 3, 2.5 mg/kg bid): 360.24 ± 88.80 mm^3
- Relative tumor proliferation rate T/C (Ba/F3 ETV6-NTRK3 cells; Day 3, 5 mg/kg bid): 43.90%
- Tumor volume (Ba/F3 ETV6-NTRK3 cells; Day 3, 5 mg/kg bid): 371.36 ± 111.74 mm^3
- Relative tumor proliferation rate T/C (Ba/F3 ETV6-NTRK3 cells; Day 3, 10 mg/kg bid): 30.18%
- Tumor volume (Ba/F3 ETV6-NTRK3 cells; Day 3, 10 mg/kg bid): 255.24 ± 87.04 mm^3
- Relative tumor proliferation rate T/C (Ba/F3 ETV6-NTRK3 cells; Day 3, 20 mg/kg bid): 31.16%
- Tumor volume (Ba/F3 ETV6-NTRK3 cells; Day 3, 20 mg/kg bid): 263.60 ± 85.49 mm^3
- Relative tumor proliferation rate T/C (Ba/F3 ETV6-NTRK3 cells; Day 5, 2.5 mg/kg bid): 29.79%
- Tumor volume (Ba/F3 ETV6-NTRK3 cells; Day 5, 2.5 mg/kg bid): 376.59 ± 84.87 mm^3
- Relative tumor proliferation rate T/C (Ba/F3 ETV6-NTRK3 cells; Day 5, 5 mg/kg bid): 22.33%
- Tumor volume (Ba/F3 ETV6-NTRK3 cells; Day 5, 5 mg/kg bid): 282.31 ± 46.30 mm^3
- Relative tumor proliferation rate T/C (Ba/F3 ETV6-NTRK3 cells; Day 5, 10 mg/kg bid): 19.15%
- Tumor volume (Ba/F3 ETV6-NTRK3 cells; Day 5, 10 mg/kg bid): 242.09 ± 78.53 mm^3
- Relative tumor proliferation rate T/C (Ba/F3 ETV6-NTRK3 cells; Day 5, 20 mg/kg bid): 22.72%
- Tumor volume (Ba/F3 ETV6-NTRK3 cells; Day 5, 20 mg/kg bid): 287.22 ± 96.26 mm^3
- Relative tumor proliferation rate T/C (Ba/F3 ETV6-NTRK3 cells; Day 7, 2.5 mg/kg bid): 18.12%
- Tumor volume (Ba/F3 ETV6-NTRK3 cells; Day 7, 2.5 mg/kg bid): 388.09 ± 100.42 mm^3
- Relative tumor proliferation rate T/C (Ba/F3 ETV6-NTRK3 cells; Day 7, 5 mg/kg bid): 16.77%
- Tumor volume (Ba/F3 ETV6-NTRK3 cells; Day 7, 5 mg/kg bid): 353.35 ± 109.82 mm^3
- Relative tumor proliferation rate T/C (Ba/F3 ETV6-NTRK3 cells; Day 7, 10 mg/kg bid): 12.50%
- Tumor volume (Ba/F3 ETV6-NTRK3 cells; Day 7, 10 mg/kg bid): 263.53 ± 134.53 mm^3
- Relative tumor proliferation rate T/C (Ba/F3 ETV6-NTRK3 cells; Day 7, 20 mg/kg bid): 9.56%
- Tumor volume (Ba/F3 ETV6-NTRK3 cells; Day 7, 20 mg/kg bid): 201.43 ± 135.76 mm^3
- Relative tumor proliferation rate T/C (Ba/F3 ETV6-NTRK3 cells; Day 9, 2.5 mg/kg bid): 18.22%
- Tumor volume (Ba/F3 ETV6-NTRK3 cells; Day 9, 2.5 mg/kg bid): 499.09 ± 161.54 mm^3
- Relative tumor proliferation rate T/C (Ba/F3 ETV6-NTRK3 cells; Day 9, 5 mg/kg bid): 16.04%
- Tumor volume (Ba/F3 ETV6-NTRK3 cells; Day 9, 5 mg/kg bid): 439.46 ± 222.47 mm^3
- Relative tumor proliferation rate T/C (Ba/F3 ETV6-NTRK3 cells; Day 9, 10 mg/kg bid): 7.73%
- Tumor volume (Ba/F3 ETV6-NTRK3 cells; Day 9, 10 mg/kg bid): 211.85 ± 87.87 mm^3
- Relative tumor proliferation rate T/C (Ba/F3 ETV6-NTRK3 cells; Day 9, 20 mg/kg bid): 4.91%
- Tumor volume (Ba/F3 ETV6-NTRK3 cells; Day 9, 20 mg/kg bid): 134.49 ± 117.51 mm^3
- Relative tumor proliferation rate T/C (Ba/F3 ETV6-NTRK3 cells; Day 11, 2.5 mg/kg bid): 15.67%
- Tumor volume (Ba/F3 ETV6-NTRK3 cells; Day 11, 2.5 mg/kg bid): 590.74 ± 266.98 mm^3
- Relative tumor proliferation rate T/C (Ba/F3 ETV6-NTRK3 cells; Day 11, 5 mg/kg bid): 8.73%
- Tumor volume (Ba/F3 ETV6-NTRK3 cells; Day 11, 5 mg/kg bid): 328.91 ± 190.07 mm^3
- Relative tumor proliferation rate T/C (Ba/F3 ETV6-NTRK3 cells; Day 11, 10 mg/kg bid): 4.82%
- Tumor volume (Ba/F3 ETV6-NTRK3 cells; Day 11, 10 mg/kg bid): 181.69 ± 121.62 mm^3
- Relative tumor proliferation rate T/C (Ba/F3 ETV6-NTRK3 cells; Day 11, 20 mg/kg bid): 2.89%
- Tumor volume (Ba/F3 ETV6-NTRK3 cells; Day 11, 20 mg/kg bid): 109.00 ± 116.94 mm^3
- TGI (tumor growth inhibition rate) (Ba/F3 ETV6-NTRK3 cells; 2.5 mg/kg bid): 84.33%
- TGI (tumor growth inhibition rate) (Ba/F3 ETV6-NTRK3 cells; 5 mg/kg bid): 91.27%
- TGI (tumor growth inhibition rate) (Ba/F3 ETV6-NTRK3 cells; 10 mg/kg bid): 95.18%
- TGI (tumor growth inhibition rate) (Ba/F3 ETV6-NTRK3 cells; 20 mg/kg bid): 97.11%
- Tumor inhibition rate (by tumor weight) (Ba/F3 ETV6-NTRK3 cells; 2.5 mg/kg bid): 85.47%
- Tumor weight (Ba/F3 ETV6-NTRK3 cells; 2.5 mg/kg bid): 0.25 ± 0.15 g
- Tumor inhibition rate (by tumor weight) (Ba/F3 ETV6-NTRK3 cells; 5 mg/kg bid): 89.51%
- Tumor weight (Ba/F3 ETV6-NTRK3 cells; 5 mg/kg bid): 0.18 ± 0.08 g
- Tumor inhibition rate (by tumor weight) (Ba/F3 ETV6-NTRK3 cells; 10 mg/kg bid): 93.42%
- Tumor weight (Ba/F3 ETV6-NTRK3 cells; 10 mg/kg bid): 0.12 ± 0.10 g
- Tumor inhibition rate (by tumor weight) (Ba/F3 ETV6-NTRK3 cells; 20 mg/kg bid): 96.47%
- Tumor weight (Ba/F3 ETV6-NTRK3 cells; 20 mg/kg bid): 0.06 ± 0.03 g
- Inhibition of growth of subcutaneous xenografts ([1]; 2.5-20 mg/kg): in a dose-dependent manner
- Relative tumor proliferation rate T/C ([1]; Day 0, 2.5 mg/kg bid): 100.00%
- Tumor volume ([1]; Day 0, 2.5 mg/kg bid): 200.40 ± 33.16 mm^3
- Relative tumor proliferation rate T/C ([1]; Day 0, 5 mg/kg bid): 100.00%
- Tumor volume ([1]; Day 0, 5 mg/kg bid): 200.35 ± 32.62 mm^3
- Relative tumor proliferation rate T/C ([1]; Day 0, 10 mg/kg bid): 100.00%
- Tumor volume ([1]; Day 0, 10 mg/kg bid): 199.55 ± 34.92 mm^3
- Relative tumor proliferation rate T/C ([1]; Day 0, 20 mg/kg bid): 100.00%
- Tumor volume ([1]; Day 0, 20 mg/kg bid): 199.51 ± 34.71 mm^3
- Relative tumor proliferation rate T/C ([1]; Day 3, 2.5 mg/kg bid): 64.91%
- Tumor volume ([1]; Day 3, 2.5 mg/kg bid): 392.17 ± 91.44 mm^3
- Relative tumor proliferation rate T/C ([1]; Day 3, 5 mg/kg bid): 56.84%
- Tumor volume ([1]; Day 3, 5 mg/kg bid): 343.40 ± 96.52 mm^3

From patent US20210403485A1, “PYRAZOLOPYRIMIDINE DERIVATIVE AS SELECTIVE TRK INHIBITOR” (SHANDONG LUYE PHARMACEUTICAL CO., LTD., priority 2018, published 2021)
